Reference: patent US12006530B2, “Streptococcal proteases” (priority 2016, dated 2024)
Residue numbers refer to the chain shown, from its start. Numbers in names are those of the source. Entries after “also recorded” stand apart in the source; their conditions may differ. Peptide text beside a SMILES is read from it. * marks the point of attachment. Cbz = O=C(OCc1ccccc1)*; CHN2 = [N-]=[N+]=C*

Columns and labels:
[1] = test system: IgG degradation activity in culture supernatant of S. suis strain 10; test: Inhibitor profile of IgG degradation activity in S. suis culture supernatant, anti-IgG Western blot; type: biochemical, Streptococcus suis; conditions: for IgG cleavage product in presence of inhibitor: concentrated (10×) supernatant of strain 10, porcine plasma; for IgG cleaving activity in the presence of class specific protease inhibitors: protease enriched ammonium sulfate precipitates of S. suis culture supernatant, porcine plasma
Method: Concentrated (10×) culture supernatant of S. suis strain 10 was incubated with porcine plasma in presence of class specific protease inhibitors. The reaction was analyzed by anti-IgG western blot under reducing conditions.
To monitor IgG cleavage activity in concentrated and fractionated culture supernatants, samples were incubated with 1% porcine plasma in PBS for 16 h at 37° C. prior to Western blot analyses.
To identify the catalytic type of the IgG protease, the IgG degradation reaction was performed in the presence of 0.1-5 mM AEBSF (Sigma), 0.1-5 mM EDTA, 50-250 μM E-64 (Sigma), 0.1-5 mM Z-LVG-CHN2 (Bachem), 0.1-5 mM Iodoacetamide (Sigma) or 1/200 to 1/50 dilution of complete protease inhibitor cocktail (Roche).
(§1) Samples for SDS-PAGE were prepared with either reducing or non-reducing sample buffer and heated to 95° C. for 5 min. 12% SDS-PAGE was either stained with Coomassie blue (Sigma), Coomassie Fluor™ Orange Protein Gel Stain (Invitrogen) or blotted to Hybond-P PVDF membrane (GE Healthcare) for western blot analyses. Membranes were blocked with 5% dry milk powder in 0.1% PBS-Tween, followed by incubation with horse-radish peroxidase conjugated antibodies. Goat anti-pig IgG-HRP (Thermo Scientific) and goat anti-porcine IgM-HRP (Thermo Scientific) was diluted 1:25′000 and goat anti-porcine IgA-HRP (Thermo Scientific) was diluted 1:12′500. Membranes were thoroughly washed with 0.1% PBS-Tween prior to development with Amersham ECL Select Western blotting detection reagent (GE Healthcare) according to manufactures instruction and pictured by LAS4000 imaging system (Fujifilm).

S. suis IgdE^ΔC = test: Inhibitor profile of purified recombinant IgdE^ΔC, quantitative IgG degradation analysis; type: biochemical, Streptococcus suis; conditions: porcine IgG
Method: The time course of cleavage (A) was monitored by continuous sampling prior to Coomassie fluor orange stained SDS-PAGE under reducing conditions followed by densitometric quantification of the cleavage product. 1.67 μM porcine IgG was incubated with 0.2 μM purified rIgdE^ac. Overnight cleavage (16 h) was set as 100% relative cleavage. For the inhibitor profile (B) initial cleavage in presence of 250 μM and 2.5 μM of each inhibitor was monitored. Initial cleavage activity of the uninhibited control was set as 100% relative activity. The DMSO control correlates to 250 μM Z-LVG-CHN2. Data are presented as mean±SEM of three experiments. Differences to the uninhibited control (*) or DMSO control (□) were analyzed by Dunnett's Multiple Comparison Test with significance set at P values of <0.05(*), <0.01(**) and <0.001(*** or □□□).
For time course analyses and inhibitor profiles the IgG degradation reaction was performed with 0.25 mg/ml porcine IgG and 2 μM purified IgdE^ΔC at 37° C. in PBS uninhibited or in the presence of 2.5 μM or […] AEBSF (Sigma), EDTA, E-64 (Sigma), lodoacetamide (Sigma), or Z-LVG-CHN2 (Bachem). DMSO (Sigma) at 0.275%, corresponding to the DMSO content in 250 µM Z-LVG-CHN2, was used as a solvent control. The reactions were continuously sampled and subjected to SDS-PAGE under reducing conditions. Protein bands were detected by staining with Coomassie Fluor™ Orange Protein Gel Stain (Invitrogen). The IgG degradation product was densitometrical quantified by imaging with LAS4000 imaging system (Fujifilm) and analyzed with Image Studio Version 3.1 (LI-COR Biosciences) software. Uninhibited over-night cleavage was set as 100% relative cleavage for the time course experiment. For the inhibitor profile the initial cleavage rate was calculated from the initial increase of cleavage product (0-25% relative cleavage) and the initial cleavage rate of the uninhibited reaction was set as 100% relative activity. Experiments were at least performed in triplicates. Statistical analyses were performed using GraphPad Prism Version 5.0.

porcine IgG = test: IgG cleavage by IgdE, SDS-PAGE; type: biochemical, pig; conditions: 3.3 μM porcine IgG, 16 h at 37° C., soluble fractions of E. coli expressing the construct, reducing SDS-PAGE
Method: (A) Schematic illustration of IgdE and the different rIgdE constructs with potential active site residues substitutions and the C-terminal truncation variant. The secretion signal peptide (residues 1-37) is marked in light grey, the transglutaminase domain is boxed and the potential active site residues and substitutions are indicated. (B) 3.3 μM porcine IgG was incubated for 16 h at 37° C. with soluble fractions of E. coli cells expressing different rIgdE constructs. The reaction was analyzed SDS-PAGE under reducing conditions. […] The weak protein band of 37 kDa is a contaminant present in lysate preparation and not related to IgdE activity.
0.5 mg/ml of porcine IgG (Sigma) in PBS or of other species (human, goat, cow, horse and mouse; all Sigma) were incubated with either crude extracts of induced E. coli carrying S. suis IgdE constructs mentioned above or 10 nM purified rIgdE for 16 h at 37° C. prior subjection to SDS-PAGE under either reducing or non-reducing conditions.
as §1

[2] = 125 fold molar excess of inhibitor, 37° C., up to 18 h
[3] = purified recombinant IgdE^ΔC, inhibitor at 250 μM and 2.5 μM per FIG. 3

CC(C)CC(NC(=O)OCc1ccccc1)C(=O)NC(C(=O)NCC(=O)C=[N+]=[N-])C(C)C (stereo not drawn) [Z-LVG-CHN2] (Cbz-Leu-Val-Gly-CHN2; configuration not given here)
IgG cleavage product in presence of inhibitor ([1]; inhibitor 0.1-5 mM): no degradation product was observed
IgG cleaving activity in the presence of class specific protease inhibitors [1]: appeared to inhibit IgG degrading activity
IgG proteolytic activity of purified IgdE^ΔC in presence of inhibitor (S. suis IgdE^ΔC; [2]): no cleavage product at all could be detected; also recorded: completely inhibited

NCCc1ccc(S(=O)(=O)F)cc1 [AEBSF]
IgG cleavage product in presence of inhibitor ([1]; inhibitor 5 mM): no degradation product was observed
IgG cleavage product in presence of inhibitor ([1]; inhibitor 0.1-1 mM): A cleavage product of IgG can be observed
IgG cleaving activity in the presence of class specific protease inhibitors [1]: interfered moderately with IgG cleavage
IgG proteolytic activity of purified IgdE^ΔC in presence of inhibitor (S. suis IgdE^ΔC; [2]): inhibited the IgdEAC moderately

O=C(O)CN(CCN(CC(=O)O)CC(=O)O)CC(=O)O [EDTA]
IgG cleavage product in presence of inhibitor ([1]; inhibitor 0.1-5 mM): A cleavage product of IgG can be observed
IgG cleaving activity in the presence of class specific protease inhibitors [1]: did not affect IgG cleavage
IgG proteolytic activity of purified IgdE^ΔC in presence of inhibitor (S. suis IgdE^ΔC; [3]): fully active

CC(C)C[C@H](NC(=O)[C@H]1O[C@@H]1C(=O)O)C(=O)NCCCCN=C(N)N [E-64]
IgG cleavage activity of S. suis culture supernatants in presence of inhibitor ([1]; at very high concentrations): interfered with IgG cleavage activity
IgG cleavage product in presence of inhibitor ([1]; inhibitor 50 μM): A cleavage product of IgG can be observed
IgG cleavage product in presence of inhibitor ([1]; inhibitor 250 μM): no degradation product was observed
IgG cleaving activity in the presence of class specific protease inhibitors [1]: appeared to inhibit IgG degrading activity
IgG proteolytic activity of purified IgdE^ΔC in presence of inhibitor (S. suis IgdE^ΔC; [3]): did not inhibit

NC(=O)CI [iodoacetamide]
IgG cleavage product in presence of inhibitor ([1]; inhibitor 0.1-5 mM): no degradation product was observed
IgG cleaving activity in the presence of class specific protease inhibitors [1]: appeared to inhibit IgG degrading activity
IgG proteolytic activity of purified IgdE^ΔC in presence of inhibitor (S. suis IgdE^ΔC; [2]): no cleavage product at all could be detected

B1: rIgdE^D348A (protein)
chain: DENSHLQSPKNTNKIEVLNWEAFSKKLKDYSSDQRQFHVLKLGFENRLGTLSTREELEEFGKNNNFLVINGKVTQNIHDFPHILVMNKGDVIAHNEEDYHNQMRELRFSGNGDLHNSMEPKRIHALFKIELDSNKRQLLNAAGLGTAENSLKNINGMTIYSHGLTVDNKYYEDYSKYTHNSVKNINVTKERFIANDDLIHKLIESSEAMKQSSERDKVKAFVQYVANHTTYDWEAANKAVQNYADINYYLGSDLFAVTERQKAMCVGFSTTAARAFNMLGLPAYVVVGKNAEGVPHATARVYYDKKWHTIAGTGFITGNKHQRSAKYSEKHFSTIGEDSYDVVEAGQEPKAERNYMIIDSNYESWAMKQKTADLLLFNKEKSLVGLDYIAYVEPTYITENKKNHLLDIYKALKRKVEETKATDKDDKDDKQEGYDRVLQFVNSDIDKLSALSKITEEEFKALENSMDLARVFLGQMNAKAGKEFSEGETYQSYLKNRQKNNTNSDDDRNRNELQENQANSDEVSQNSKDASAPSVNSAQQSEELEGTPSTQETISAAPSQQTPAAPKALQAKTELEDKTETSSLGNTEMVSPSSETAQNTVDSKEESDAKLPYVEPSSKESSEAQVNTVSSPQVSSASPTSSETISTDTVTASQEKAESRVSAPQVISASQTSPETNSAEVVTTSQEVAKAPVSAPQVSSEIQTLSETAPTEVATEAPELSALESNPAPQTSLETTPTEEVTETPEPSVVESNSASPTSPETNSAEAVTTSQEMAEPSVSVPQVSSEIPTSSETAPAEVATEVSEESSSASQPSPETTPTETVTTSQEVAEAPVSAPQVSSEIPTSPETASTEVVVAKQEVADSPVSAPQVISEIPTSSETAPAEVATEVTEPSVVASSSASPTSPEANSTEVVVAKQEVADPLVSAPQTSSASLTLEVPKNEHLDEKADATTPNGVEANTHEAVSVPTSDIRVQDAGSDTVPQPYSLSATLFEEAISTVEPVGVATSSQERSAVAGKVKVPTSLERSNNSVEEEKVVDSNATIENREPEKKEILTSENVLNSLVTIWVALSTSFFMRYFSRGK
IgG cleavage (32 kDa band) by rIgdE constructs (porcine IgG): IgG cleavage (*) occurred; also recorded: somewhat reduced IgG cleaving activity

B2: rIgdE^H333A (protein)
chain: B1 chain with H296A, A311D
IgG cleavage (32 kDa band) by rIgdE constructs (porcine IgG): neither rIgdE^C302S nor rIgdE^H333A exhibited IgG cleaving activity

B3: rIgdE^C302S (protein)
chain: B1 chain with C265S, A311D
IgG cleavage (32 kDa band) by rIgdE constructs (porcine IgG): neither rIgdE^C302S nor rIgdE^H333A exhibited IgG cleaving activity
